# Laboratory results taken from patent US20250179094A1, “TGF-B INHIBITOR COMPOUND AND USE THEREOF” (Medinno Pharmaceutical Technology (Zhuhai) Co., Ltd., priority 2022, published 2025).
# Target: human TGFβR1 (Homo sapiens (Human), UniProt P36897)
# Experiment: TGFβR1 kinase activity assay (ADP-Glo method)
# Format: biochemical
# Settings: ATP 5 uM, TGFβR1tide substrate, 60 minutes at room temperature
# Experimental: The principle of the activity assay was that TGFβR1 phosphorylates the substrate TGFβR1tide, consuming ATP in the process. […] The specific experimental steps were as follows. Compounds were diluted 4-fold in DMSO in a dilution plate, with the final starting concentration of the compounds being 10 μM, across 10 concentration gradient points. The compounds were then further diluted 50-fold into the kinase reaction buffer and incubated on a shaker for 20 minutes. Kinase was formulated with an enzyme reaction buffer. 2 μl kinase was added to each well of the reaction plate. 1 μl of the compound diluted in buffer was added to each well, and then the plate was sealed with a sealing membrane and centrifuged at 1000 g for 30 seconds, leaving it at room temperature for 10 minutes. Solutions of TGFβR1tide and ATP were prepared with the kinase reaction buffer, and 2 μL of the TGFβR1tide/ATP solution was added to the reaction plate. The plate was sealed with a sealing film and centrifuged at 1000 g for 30 seconds. It was allowed to react at room temperature for 60 minutes. Subsequently, 4 μL of ADP-Glo was transferred to a 384-well reaction plate and centrifuged at 1000 rpm/min for 1 minute, followed by incubation at 25° C. for 40 minutes. Then, 8 μL of Detection solution was transferred to the 384-well reaction plate and centrifuged at 1000 rpm/min for 1 minute, after which it was incubated at 25° C. for 40 minutes. The RLU (Relative Luminescence Unit) signal was read using a BMG microplate reader, which was used to characterize the degree of kinase activity.
# 3.1 The inhibition rate was calculated as follows: inhibition rate of compound (% inh)=100%−(compound−positive control)/(negative control−positive control)*100%.
# The IC50 (half inhibition concentration) of a compound was obtained using the following non-linear fitting equation, wherein data analysis was performed using Graphpad 7.0 software.
# X: log value of compound concentration; and Y: inhibition rate (% inhibition)
# human TGFβR1, sequence (P36897 34-503): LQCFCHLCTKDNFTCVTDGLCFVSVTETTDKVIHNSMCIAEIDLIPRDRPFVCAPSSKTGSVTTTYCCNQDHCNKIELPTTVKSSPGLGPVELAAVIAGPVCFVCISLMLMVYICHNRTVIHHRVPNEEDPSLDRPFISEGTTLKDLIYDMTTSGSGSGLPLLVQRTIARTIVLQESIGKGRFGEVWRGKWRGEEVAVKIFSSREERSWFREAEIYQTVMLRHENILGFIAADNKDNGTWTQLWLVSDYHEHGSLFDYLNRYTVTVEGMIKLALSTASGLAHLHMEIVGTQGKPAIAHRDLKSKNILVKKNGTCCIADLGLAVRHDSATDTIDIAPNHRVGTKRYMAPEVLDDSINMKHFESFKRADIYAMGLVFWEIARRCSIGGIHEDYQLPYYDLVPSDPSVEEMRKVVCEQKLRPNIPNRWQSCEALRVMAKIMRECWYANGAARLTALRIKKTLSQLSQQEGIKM
row,Structure (SMILES),IC50 [nM]
1,"Cc1cccc(-c2nc3n(c2-c2ccnc(-c4nc5c([nH]4)CN(C4CCN(C)CC4)C5)c2)CCC3)n1 [Compound 13, 5-(1-Methylpiperidin-4-yl)-2-(4-(2-(6-methylpyridin-2-yl)-6,7-dihydro-5H-pyrrolo[1,2-a]imidazol-3-yl)pyridin-2-yl)-1,4,5,6-tetrahydropyrrolo[3,4-d]imidazole]",11.9
2,"COC(=O)N1Cc2nc(-c3cc(-c4c(-c5cccc(C)n5)nc5n4CCC5)ccn3)[nH]c2C1 [Compound 30, Methyl 2-(4-(2-(6-Methylpyridin-2-yl)-6,7-dihydro-5H-pyrrolo[1,2-alimidazol-3-yl)pyridin-2-yl)-4,6-dihydropyrrolo[3,4-d]imidazol-5(1H)-carboxylate]",5.7
3,"Cc1cccc(-c2nc3n(c2-c2ccnc(-c4nc5c([nH]4)CN(C(=O)c4cnn(C)c4)C5)c2)CCC3)n1 [Compound 11, (1-Methyl-1H-pyrazol-4-yl)(2-(4-(2-(6-methylpyridin-2-yl)-6,7-dihydro-5H-pyrrolo[1,2-a]imidazol-3-yl)pyridin-2-yl)-4,6-dihydropyrrolo[3,4-d]imidazol-5(1H)-yl)ketone]",11.6
4,"Cc1cccc(-c2nn(C)cc2-c2ccnc(-c3nc4c([nH]3)CN(S(C)(=O)=O)C4)c2)n1 [Compound 39, 2-[4-(1-Methyl-3-(6-methylpyridin-2-yl)-1H-pyrazol-4-yl)pyridin-2-yl]-5-(methylsulfonyl)-1,4,5,6-tetrahydropyrrolo[3,4-d]imidazole]",2
5,"Cc1cccc(-c2nc3n(c2-c2ccnc(-c4nc5c([nH]4)CN(S(C)(=O)=O)C5)c2)CCC3)n1 [Compound 9, 2-(4-(2-(6-Methylpyridin-2-yl)-6,7-dihydro-5H-pyrrolo[1,2-a]imidazol-3-yl)pyridin-2-yl)-5-(methylsulfonyl)-1,4,5,6-tetrahydropyrrolo[3,4-d]imidazole]",5.4
6,"Cc1cccc(-c2nc3n(c2-c2ccnc(-c4nc5c([nH]4)CNC5)c2)CCC3)n1 [Compound 2, 2-(4-(2-(6-methylpyridin-2-yl)-6,7-dihydro-5H-pyrrolo[1,2-a]imidazol-3-yl)pyridin-2-yl)-1,4,5,6-tetrahydropyrrolo[3,4-d]imidazole]",23
7,"Cc1cccc(-c2nc3n(c2-c2ccnc(-c4nc5c([nH]4)CN(CC4CC(O)C4)C5)c2)CCC3)n1 (centres unmarked) [Compound 26, 3-((2-(4-(2-(6-Methylpyridin-2-yl)-6,7-dihydro-5H-pyrrolo[1,2-a]imidazol-3-yl)pyridin-2-yl)-4,6-dihydropyrrolo[3,4-d]imidazol-5(1H)-yl)methyl)cyclobutanol]",4.1
8,"Cc1cccc(-c2nc3n(c2-c2ccnc(-c4nc5c([nH]4)CN(C(=O)N(C)C)C5)c2)CCC3)n1 [Compound 29, N,N-Dimethyl-2-(4-(2-(6-methylpyridin-2-yl)-6,7-dihydro-5H-pyrrolo[1,2-a]imidazol-3-yl)pyridin-2-yl)-4,6-dihydropyrrolo[3,4-d]imidazol-5(1H)-carboxamide]",0.18
9,"Cc1cccc(-c2nc3n(c2-c2ccnc(-c4nc5c([nH]4)CN(C(=O)N4CCN(C)CC4)C5)c2)CCC3)n1 [Compound 4, (4-methylpiperazin-1-yl)(2-(4-(2-(6-methylpyridin-2-yl)-6,7-dihydro-5H-pyrrolo[1,2-a]imidazol-3-yl)pyridin-2-yl)-4,6-dihydropyrrolo[3,4-d]imidazol-5(1H)-yl)ketone]",3.8
10,Cc1cccc(-c2nc3n(c2-c2ccnc(-c4nc5c([nH]4)CN(C(=O)N4CCOCC4)C5)c2)CCC3)n1 [Compound 14],7.9

# Results, then the molecule that gave them:
row,IC50 [nM],Structure (SMILES)
1,1.4,"Cc1cccc(-c2nn(Cc3cccnc3)cc2-c2ccnc(-c3nc4c([nH]3)CN(S(C)(=O)=O)C4)c2)n1 [Compound 54, 2-[4-(3-(6-Methylpyridin-2-yl)-1-(pyridin-3-ylmethyl)-1H-pyrazol-4-yl)pyridin-2-yl]-5-(methylsulfonyl)-1,4,5,6-tetrahydropyrrolo[3,4-d]imidazole]"
2,1.8,"Cc1cccc(-c2nn(C)cc2-c2ccnc(-c3nc4c([nH]3)CN(C(=O)N(C)C)C4)c2)n1 [Compound 58, N,N-Dimethyl-2-(4-(1-methyl-3-(6-methylpyridin-2-yl)-1H-pyrazol-4-yl)pyridin-2-yl)-4,6-dihydropyrrolo[3,4-d]imidazol-5(1H)-carboxamide]"
3,3,"Cc1cccc(-c2nn(CC3CC(O)C3)cc2-c2ccnc(-c3nc4c([nH]3)CN(S(C)(=O)=O)C4)c2)n1 (centres unmarked) [Compound 49, 3-((3-(6-Methylpyridin-2-yl)-4-(2-(5-(methylsulfonyl)-1,4,5,6-tetrahydropyrrolo[3,4-d]imidazol-2-yl)pyridin-4-yl)-1H-pyrazol-1-yl)methyl)cyclobutanol]"
4,1.3,"Cc1cccc(-c2nn3c(c2-c2ccnc(-c4nc5c([nH]4)CN(S(=O)(=O)C(C)C)C5)c2)CCC3)n1 [Compound 69, 5-(Isopropylsulfonyl)-2-(4-(2-(6-methylpyridin-2-yl)-5,6-dihydro-4H-pyrrolo[1,2-b]pyrazol-3-yl)pyridin-2-yl)-1,4,5,6-tetrahydropyrrolo[3,4-d]imidazole]"
5,1.6,"Cc1cccc(-c2nc3n(c2-c2ccnc(-c4nc5c([nH]4)CN(S(C)(=O)=O)CC5)c2)CCC3)n1 [Compound 63, 2-(4-(2-(6-methylpyridin-2-yl)-6,7-dihydro-5H-pyrrolo[1,2-a]imidazol-3-yl)pyridin-2-yl)-5-(methylsulfonyl)-4,5,6,7-tetrahydro-3H-imidazolo[4,5-c]pyridine]"
6,4,"Cc1cccc(-c2nn3c(c2-c2ccnc(-c4nc5c([nH]4)CN(S(C)(=O)=O)C5)c2)CCC3)n1 [Compound 66, 2-(4-(2-(6-Methylpyridin-2-yl)-5,6-dihydro-4H-pyrrolo[1,2-b]pyrazol-3-yl)pyridin-2-yl)-5-(methylsulfonyl)-1,4,5,6-tetrahydropyrrolo[3,4-d]imidazole]"
7,5.6,"Cc1cccc(-c2nn(Cc3ccccc3F)cc2-c2ccnc(-c3nc4c([nH]3)CN(S(C)(=O)=O)C4)c2)n1 [Compound 51, 2-[4-(1-(2-Fluorobenzyl)-3-(6-methylpyridin-2-yl)-1H-pyrazol-4-yl)pyridin-2-yl]-5-(methylsulfonyl)-1,4,5,6-tetrahydropyrrolo[3,4-d]imidazole]"
8,27,"Cc1cccc(-c2nn(C)cc2-c2ccnc(-c3nc4c([nH]3)CN(C(=O)C3CC(O)C3)C4)c2)n1 (centres unmarked) [Compound 42, (3-Hydroxycyclobutyl)(2-(4-(1-methyl-3-(6-methylpyridin-2-yl)-1H-pyrazol-4-yl)pyridin-2-yl)-4,6-dihydropyrrolo[3,4-d]imidazol-5(1H)-yl)ketone]"
9,9.2,"Cc1cccc(-c2n[nH]cc2-c2ccnc(-c3nc4c([nH]3)CN(C(=O)N(C)C)C4)c2)n1 [Compound 59, N,N-Dimethyl-2-(4-(3-(6-methylpyridin-2-yl)-1H-pyrazol-4-yl)pyridin-2-yl)-4,6-dihydro pyrrolo[3,4-d]imidazol-5(1H)-carboxamide]"
10,2,"Cc1cccc(-c2nn3c(c2-c2ccnc(-c4nc5c([nH]4)CN(C(=O)N(C)C)C5)c2)CCC3)n1 [Compound 67, N,N-Dimethyl-2-(4-(2-(6-methylpyridin-2-yl)-5,6-dihydro-4H-pyrrolo[1,2-b]pyrazol-3-yl)pyridin-2-yl)-4,6-dihydropyrrolo[3,4-d]imidazole-5(1H)-carboxamide]"
